From patent US20250339425A1 (Northeastern University, priority 2024, published 2025)
Read-outs that look alike come from different tables or passages of the source.

Experiments:
[1] = system: BzATP-induced release of IL-1β by human monocytic THP-1 cells; assay: BzATP-induced release of IL-1β by LPS-primed monocytic THP-1 cells (ELISA); conditions: for inhibitory effect on IL-1β release at the lowest concentration tested: 1 nM; for inhibition of BzATP-induced release of IL-1β: LPS-primed THP-1 cells, ACh at 10 μM; for antagonism of the effect of ACh on IL-1β release: all concentrations investigated (1 nM to 100 μM), ACh 10 μM
Description: Monocytic THP-1 cells were primed with lipopolysaccharide (LPS; 1 μg/ml, 5 hours). Thereafter, the P2X7 receptor agonist BzATP (100 μM) was added for another 40 minutes to trigger IL-1β release. […] The IL-1β concentrations obtained after stimulation with BzATP+solvent were set to 100% and all other values were calculated accordingly. Data are presented as individual data points, the bar represents the median, and whiskers encompass the 25th to 75th percentile. *p≤0.05, different from LPS-primed cells stimulated with BzATP alone. Friedman test followed by the Wilcoxon signed-rank test.
The new compounds were tested for the ability to down-regulate the ATP-mediated release of 10 IL-1β by human monocytic THP-1 cells.
Monocytic THP-1 cells were primed with lipopolysaccharide (LPS, 1 μg/ml) for 5 hours and further stimulated them with BzATP (100 μg/ml) for 40 minutes to induce the maturation and release of IL-1β.
The monocytic THP-1 cell line was obtained from the German Collection of Microorganisms and Cell Cultures (Braunschweig, Germany). […] Thereafter, 0.5×10^6 cells/0.5 ml and per well were seeded in 48-well plates (Greiner Bio-One, Frickenhausen, Germany) as described previously.^27 The cells were primed with LPS (1 μg/ml; E. coli O26:B6, Merck, Darmstadt, Germany, Cat #L2654) for 5 h under 5% CO2 atmosphere at 37° C. […] After the treatment, cells were spun down (500 g, 8 min, 4° C.) to collect the cell-free supernatants, that were stored at −20° C. for later measurements of IL-1β and lactate dehydrogenase (LDH) activity.
To measure IL-1β concentrations in the cell-free supernatants the Human IL-1 beta/IL-1F2 DuoSet enzyme-linked immunosorbent assay (ELISA) from R&D Systems (Cat #DY201) was used according to the supplier's instructions. In parallel, LDH activity was measured to test for cell viability at the end of the cell culture experiments, using the CytoTox 96® Non-Radioactive Cytotoxicity Assay (Promega, Madison, WI, United States; Cat #G1780) according to the supplier's instructions.
Results obtained in the BzATP-induced IL-1β release experiments were analyzed using SPSS (Version 27, IBM, Armonk, NY, United States). The data were analyzed first by the Friedman test followed by the Wilcoxon signed-rank test. […] The number (n) of individual experiments is indicated in the Figures and refers to independent experiments, which were performed on different days with different cell passages.

[2] = molecular target: human α7 nAChR (Homo sapiens, UniProt P36544)
[3] = molecular target: T1, α9 nAChR (Homo sapiens, UniProt Q9UGM1); conditions: for EC50: read-out: α9 EC50
[4] = Plasma protein binding
[5] = In vitro metabolic stability in rat hepatocytes
[6] = In vitro metabolic stability in pooled human liver microsomes
[7] = system: CFA-induced paw edema in mice; assay: CFA-induced paw edema in mice; assay type: in vivo, mouse; conditions: CFA-treated mice; 10 mg/kg differing from vehicle
[8] = system: locomotor activity of mice; assay: Locomotor activity of mice (photocell activity cages); assay type: in vivo, mouse; conditions: 10 mg/kg, compared to vehicle-treated animals
Description: Mechanical thresholds were elevated by treatments with II (FIGS. 5A-5D). […] Therefore, the data in FIGS. 5A-5D are the mean±SD scores for each condition. Statistical analysis was conducted using a Kruskal-Wallis test followed by Mann-Whitney rank sum test at each time point following II treatment.
Interruptions of the photocell beams (two banks of eight cells each) were then recorded for the next 60 min. Data are expressed as number of photocell interruptions.

[9] = system: CFA-induced inflammatory pain in mice; conditions: mouse, in vivo
Description: Experiments were conducted using adult (10-15 weeks) male and female C57BL/6J mice from Jackson Laboratory (Bar Harbor ME, USA): α7 WT and KO mice on a C57BL/6J background. Mice null for the α7 subunit along with their WT littermates were initially procured from Jackson Laboratory and later bred in an approved animal care facility at Virginia Commonwealth University. The breeding scheme involved crossing heterozygous mice and backcrossing progeny for at least 12 to 15 generations, to control for irregularities that might occur crossing solely mutant animals, to generate both mutant and WT animals. […] Then mice were retrieved from the vivarium and housed (4-5 mice per cage) for the duration of the study in a temperature- and humidity-controlled out-of-vivarium space on the same light/dark cycle. They were given ad libitum food and water. All experiments were performed during the light cycle.
Mice were injected intraplantarly with 20 μl of CFA (50%, diluted in mineral oil; Sigma-Aldrich). Mechanical sensitivity (see the measurement of the von Frey test) was measured before and 3 days after CFA injection.
The mechanical threshold was expressed as log 10 of 10× force (in milligrams), indicating the force of the von Frey hair to which the animal reacted (paw withdrawn, licking, or shaking). All behavioral testing on animals was performed in a blinded manner.

[10] = molecular target: T1, α9 nAChR; assay: cell-based
[11] = molecular target: T2, α9α10 nAChR (Homo sapiens, UniProt Q9GZZ6+Q9UGM1); assay: Inhibition of ACh-evoked currents, co-application with 60 μM ACh, oocytes expressing α9α10; assay type: cell-based; conditions: co-applied with 60 μM ACh; unit not printed for these values (α9 values in μM); read-out: IC50 as antagonist on α9α10
T2 construct: expressed in transfected cells; host or cells: Xenopus laevis oocytes injected with in vitro transcribed RNA
Description: (§1) FIGS. 13A-13B show inhibition concentration-response studies for chiral diMPP compounds (2R)PA-diMPP (8) and (2S)PA-diMPP (9), identified as α9 and α9α10 antagonists.
(§2) Experimental responses were measured relative to the preceding ACh control response. […] The transition from agonist to antagonist behavior in α7 to α9* nAChRs indicates a slightly bigger dialkyl tail on nitrogen, or perhaps more importantly, the asymmetry of the groups and potential for multiple rotamers is important for α9 agonism, while chirality is more important for α7 selectivity.
(§3) Two-electrode voltage-clamp experiments were conducted using OpusXpress 6000A (Molecular Devices, Union City CA, USA). Both the voltage and current electrodes were filled with 3 M KCl. Oocytes were voltage-clamped at −60 mV at room temperature. The oocytes were perfused with Ringer's solution (115 mM NaCl, 2.5 mM KCl, 1.8 mM CaCl2), 10 mM HEPES, 1 μM atropine, pH 7.2) at 2 ml/min. […] Drug applications were 12 s in duration followed by 181 s washout periods.

[12] = molecular target: T1, α9 nAChR; assay: Inhibition of ACh-evoked currents, co-application with 60 μM ACh, oocytes expressing α9; assay type: cell-based; design: expressed in transfected cells; host or cells: Xenopus laevis oocytes injected with in vitro transcribed RNA; conditions: co-applied with 60 μM ACh; read-out: IC50 as antagonist on α9
Description: as §1, §2, §3

[13] = system: CFA-induced inflammatory pain in mice; conditions: previously reported α9 nAChR agonist; cited from earlier work
[14] = in vitro; conditions: BALB/c, mouse, pooled mouse plasma
[15] = Table 1, peak current, relative to ACh maximum
[16] = Table 4, chiral EMPPs and diMPPs
[17] = Table 1, unit not given (0.23 as 230 nM)
[18] = Table 1, net charge, relative to ACh maximum
[19] = read-out: α7 EC50, Table 1, unit inferred
[20] = read-out: α7 EC50, Table 4, unit inferred
[21] = read-out: α7 EC50, Table 2, unit inferred

Chain of human α7 nAChR (P36544 23-502): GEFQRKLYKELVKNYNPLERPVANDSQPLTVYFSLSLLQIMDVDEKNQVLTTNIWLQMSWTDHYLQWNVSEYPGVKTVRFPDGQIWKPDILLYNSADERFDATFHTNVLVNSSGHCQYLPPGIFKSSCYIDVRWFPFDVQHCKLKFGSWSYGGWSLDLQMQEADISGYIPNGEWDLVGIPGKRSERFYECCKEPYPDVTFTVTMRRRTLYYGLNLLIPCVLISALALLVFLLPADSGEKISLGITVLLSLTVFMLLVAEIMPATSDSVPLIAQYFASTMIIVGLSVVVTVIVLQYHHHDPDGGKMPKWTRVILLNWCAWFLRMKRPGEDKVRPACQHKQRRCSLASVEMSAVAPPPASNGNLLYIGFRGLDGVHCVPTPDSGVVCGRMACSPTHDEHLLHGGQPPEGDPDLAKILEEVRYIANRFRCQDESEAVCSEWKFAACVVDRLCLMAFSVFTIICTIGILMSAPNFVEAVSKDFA
T1 sequence (Q9UGM1 26-479 limits assumed): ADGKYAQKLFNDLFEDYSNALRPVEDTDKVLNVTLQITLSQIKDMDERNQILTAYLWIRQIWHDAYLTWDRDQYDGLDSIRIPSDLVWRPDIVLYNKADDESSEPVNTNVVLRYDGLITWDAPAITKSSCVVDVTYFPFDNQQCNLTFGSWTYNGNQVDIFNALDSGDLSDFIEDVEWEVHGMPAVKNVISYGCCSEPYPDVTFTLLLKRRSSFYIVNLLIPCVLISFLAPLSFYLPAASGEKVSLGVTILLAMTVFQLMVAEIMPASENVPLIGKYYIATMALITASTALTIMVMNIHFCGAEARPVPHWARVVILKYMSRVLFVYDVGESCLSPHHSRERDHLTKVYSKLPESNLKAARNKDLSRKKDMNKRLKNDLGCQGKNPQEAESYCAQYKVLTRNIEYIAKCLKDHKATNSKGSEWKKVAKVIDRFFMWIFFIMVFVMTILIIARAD
T2 sequence (Q9UGM1 26-479 limits assumed): as above
T2 sequence (Q9GZZ6 25-450): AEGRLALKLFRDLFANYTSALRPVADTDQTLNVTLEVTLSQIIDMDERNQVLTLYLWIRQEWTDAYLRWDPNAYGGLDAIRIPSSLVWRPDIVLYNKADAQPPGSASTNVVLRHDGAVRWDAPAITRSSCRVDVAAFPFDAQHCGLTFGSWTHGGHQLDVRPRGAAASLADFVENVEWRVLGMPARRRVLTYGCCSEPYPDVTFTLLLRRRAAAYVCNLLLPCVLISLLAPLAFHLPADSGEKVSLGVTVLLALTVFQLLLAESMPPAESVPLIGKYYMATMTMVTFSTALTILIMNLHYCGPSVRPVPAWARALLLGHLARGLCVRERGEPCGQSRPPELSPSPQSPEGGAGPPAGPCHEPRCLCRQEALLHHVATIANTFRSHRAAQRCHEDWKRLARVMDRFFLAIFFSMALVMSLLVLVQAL

CC[N+]1(C)CCN(c2ccc(C#N)cc2)C[C@H]1C (stereo partly drawn) [(2R)r/s-pCN-EMPP]
inhibitory effect on IL-1β release at the lowest concentration tested [1]: moderate but significant inhibitory effects | inhibition of BzATP-induced release of IL-1β [1]: significantly inhibited

CC[N+]1(C)CCN(c2ccc(C#N)cc2)CC1C [(2S)r/s-pCN-EMPP]
inhibition of BzATP-induced release of IL-1β [1]: significantly inhibited | EC50 [2]: 26600 ± 9600 nM

CC[N+]1(C)CCN(c2ccc(C(=O)Nc3cccc(C)n3)cc2)CC1 [Compound 3f, reference compound]
α9 Imax [3, 15]: 1.19 ± 0.03 | α9 Imax [3, 16]: 1.19 ± 0.03 | EC50 [3, 17]: 510 ± 70 nM | EC50 ([3]; Table 4, unit inferred): 510 ± 70 nM | plasma protein binding [4]: 32% | clearance [5]: low clearance | clearance [6]: low clearance | α7 Imax [2, 18]: 0.40 ± 0.02 | α7 Imax ([2]; Table 4): 0.40 ± 0.02 | EC50 [2, 19]: 6100 ± 1100 nM | EC50 [2, 20]: 6100 ± 1100 nM

CC[N+]1(CC)CCN(c2ccc(NC(=O)c3cccc(C)n3)cc2)CC1.[I-] [Compound I, 1,1-Diethyl-4-(4-(6-methylpicolinamido)phenyl)piperazin-1-ium iodide]
α9 Imax [3, 15]: 1.24 ± 0.04 | α9 Imax ([3]; Table 3, reverse amide GATs): 1.01 ± 0.03 | EC50 [3, 17]: 1630 ± 200 nM | EC50 ([3]; Table 3, unit not printed (text gives 0.086 as 86 nM)): 230 ± 34 nM | α7 Imax [2, 18]: 0.14 ± 0.004 | α7 Imax ([2]; Table 3): 0.41 ± 0.025 | EC50 [2, 19]: 4680 ± 540 nM | EC50 ([2]; read-out: α7 EC50, Table 3, unit inferred): 78300 ± 11300 nM

CC[N+]1(C)CCN(c2ccc(NC(=O)c3cccc(C)n3)cc2)CC1 [Compound II, 1-Ethyl-1-methyl-4-(4-(6-methylpicolinamido)phenyl)piperazin-1-ium iodide]
paw edema [7]: significantly reduced paw edema | locomotor activity [8]: did not significantly alter locomotor activity | type of activity at α9 / α9* nAChR [3]: full agonist | α9 Imax [3, 15]: 1.01 ± 0.03 | EC50 [3, 17]: 230 ± 34 nM | mechanical thresholds at the 72 h time point [9]: no significant effects | plasma protein binding [4]: 54% | clearance [5]: low clearance | clearance [6]: low clearance | α7 Imax [2, 18]: 0.41 ± 0.025 | EC50 [2, 19]: 78300 ± 11300 nM

CC[N+]1(C)CCN(c2ccc(NC(C)=O)cc2)CC1 [Compound III, 4-(4-Acetamidophenyl)-1-ethyl-1-methylpiperazin-1-ium Iodide]
α9 Imax [3, 15]: 0.75 ± 0.04 | EC50 [3, 17]: 2270 ± 490 nM | increase in potency relative to ACh ([3]; α9): 113 fold | EC50 [10]: 230 nM

CC[N+]1(C)CCN(c2ccc(C(=O)Nc3cccc(C)n3)cc2)C[C@H]1C (stereo partly drawn) [Compound IV-a, (2R)-1-ethyl-1,2-dimethyl-4-(4-((6-methylpyridin-2-yl)carbamoyl)phenyl)piperazin-1-ium iodide]
receptor selectivity α9 vs α7 [3]: selective towards α7 | α9 Imax ([3]; Table 2, chiral compounds): 0.0521 ± 0.013 | α9 Imax [3, 16]: 0.052 ± 0.013 | EC50 ([3]; Table 2, unit inferred): 1930 ± 2250 nM | EC50 ([3]; Table 4, unit inferred): 1930 ± 2250 nM | inhibitory effect on IL-1β release at the lowest concentration tested [1]: moderate but significant inhibitory effects | inhibition of BzATP-induced release of IL-1β [1]: significantly inhibited | α7 Imax ([2]; Table 2, chiral compounds): 0.548 ± 0.02 | α7 Imax ([2]; Table 4): 0.55 ± 0.02 | EC50 [2, 21]: 7160 ± 1290 nM | EC50 [2, 20]: 7160 nM

Cc1cccc(NC(=O)c2ccc(N3CC[N+](C)(C)[C@@H](C)C3)cc2)n1 [Compound IV-e]
IC50 [11]: 4.33 ± 1.14 µM | receptor selectivity α9 vs α7 [3]: selective for α7 | type of activity at α9 / α9* nAChR [3]: antagonists of the alpha 9 nicotinic acetylcholine receptor | α9 Imax ([3]; Table 2, chiral compounds): 0.04 ± 0.005 | α9 Imax [3, 16]: 0.04 ± 0.005 | type of activity at α9 / α9* nAChR ([3]; listed as (2S)PA-diMPP): lost nearly all agonist activity for α9* receptors | EC50 ([3]; Table 2, unit inferred): 800 ± 600 nM | EC50 ([3]; Table 4, unit inferred): 800 ± 600 nM | inhibition of BzATP-induced release of IL-1β [1]: significantly inhibited | antagonism of the effect of ACh on IL-1β release [1]: significantly antagonized the effect of ACh | α7 Imax ([2]; Table 2, chiral compounds): 0.397 ± 0.011 | α7 Imax ([2]; Table 4): 0.397 ± 0.01 | EC50 [2, 21]: 3490 ± 350 nM | EC50 [2, 20]: 3490 ± 350 nM | IC50 [12]: 240 ± 110 nM

CC[N+]1(C)CCN(c2ccc(C(=O)Nc3cccc(C)n3)cc2)C[C@@H]1C (stereo partly drawn) [IV-b]
receptor selectivity α9 vs α7 [3]: selective towards α9 | α9 Imax ([3]; Table 2, chiral compounds): 0.670 ± 0.02 | α9 Imax [3, 16]: 0.670 ± 0.02 | EC50 ([3]; Table 2, unit inferred): 2090 ± 630 nM | EC50 ([3]; Table 4, unit inferred): 2090 ± 630 nM | inhibition of BzATP-induced release of IL-1β [1]: significantly inhibited | α7 Imax ([2]; Table 2, chiral compounds): 0.238 ± 0.004 | α7 Imax ([2]; Table 4): 0.24 ± 0.004 | EC50 [2, 21]: 7100 ± 490 nM | EC50 [2, 20]: 7100 ± 490 nM

Cc1cccc(NC(=O)c2ccc(N3CC[N+](C)(C)[C@H](C)C3)cc2)n1 [IV-f]
IC50 [11]: 0.406 ± 0.15 µM | receptor selectivity α9 vs α7 [3]: selective for α7 | type of activity at α9 / α9* nAChR [3]: antagonists of the alpha 9 nicotinic acetylcholine receptor | α9 Imax ([3]; Table 2, chiral compounds): 0.0065 ± 0.72 | α9 Imax [3, 16]: 0.0065 ± 0.72 | type of activity at α9 / α9* nAChR ([3]; listed as (2R)PA-diMPP): lost nearly all agonist activity for α9* receptors | inhibition of BzATP-induced release of IL-1β [1]: significantly inhibited | antagonism of the effect of ACh on IL-1β release [1]: significantly antagonized the effect of ACh | α7 Imax ([2]; Table 2, chiral compounds): 0.426 ± 0.021 | α7 Imax ([2]; Table 4): 0.426 ± 0.02 | EC50 [2, 21]: 3060 ± 380 nM | EC50 [2, 20]: 3060 ± 380 nM | IC50 [12]: 210 ± 60 nM

CC[N+]1(C)CCN(c2ccc(NC(=O)c3cccc(Br)n3)cc2)CC1 [V-a]
α9 Imax ([3]; Table 3, reverse amide GATs): 0.936 ± 0.04 | EC50 [10]: 440 ± 108 nM | EC50 [2]: 7100 ± 3170 nM | α7 Imax ([2]; Table 3): 0.094 ± 0.012

CC[N+]1(C)CCN(c2ccc(NC(=O)c3cccc(Cl)n3)cc2)CC1 [V-b]
α9 Imax ([3]; Table 3, reverse amide GATs): 1.00 ± 0.18 | EC50 [10]: 560 ± 65 nM | EC50 [2]: 14000 nM | α7 Imax ([2]; Table 3): 0.10 ± 0.028

CC[N+]1(C)CCN(c2ccc(NC(=O)c3cccc(F)n3)cc2)CC1 [V-c]
α9 Imax ([3]; Table 3, reverse amide GATs): 1.2 ± 0.13 | EC50 [10]: 810 ± 380 nM | α7 Imax ([2]; Table 3): 0.000 ± 0.000

CC[N+]1(C)CCN(c2ccc(NC(=O)c3ccc4ccccc4n3)cc2)CC1 [V-f]
α9 Imax ([3]; Table 3, reverse amide GATs): 1.008 ± 0.048 | EC50 [10]: 157 nM | EC50 [2]: 2030 ± 540 nM | α7 Imax ([2]; Table 3): 0.124 ± 0.009

CC[N+]1(C)CCN(c2ccc(NC(=O)c3ccc(C)cn3)cc2)CC1 [V-h]
α9 Imax ([3]; Table 3, reverse amide GATs): 1.00 ± 0.08 | EC50 [10]: 440 ± 140 nM | EC50 [2]: 315000 nM | α7 Imax ([2]; Table 3): 0.266 ± 0.33

CC[N+]1(C)CCN(c2ccc(NC(=O)c3ncc(C(F)(F)F)cc3Cl)cc2)CC1 [V-i]
α9 Imax ([3]; Table 3, reverse amide GATs): 1.23 ± 0.13 | EC50 [10]: 810 ± 380 nM | α7 Imax ([2]; Table 3): 0.001 ± 0.14

CC[N+]1(CC)CCN(c2ccc(C#N)cc2)CC1 [pCN-diEPP]
effective duration against CFA-induced pain like behaviors [13]: 3 to 6 h

CCN(CC)CCOC(=O)c1ccc(N)cc1 [procaine]
half-life at 1 μM [14]: < 5 min
